Experiment [1] has as its target T1, KRAS G12C/SOS/c-Raf complex (Homo sapiens, UniProt P01116, G12C).
T1 construct: Biotinylated AviTag-KRAS G12C (amino acid region 1-185, GDP)
In words: KRAS G12C/SOS/c-Raf complex formation inhibitory action (TR-FRET). The following applies: one hour at room temperature, read-out: IC50 (KRAS G12C/SOS/c-Raf complex formation inhibition). The format is biochemical. The protocol:
Evaluation of KRAS G12C/SOS/c-Raf Complex Formation Inhibitory Action
Human Recombinant KRAS G12C, SOS, and c-Raf protein were used, and with respect to the complex formation of these proteins, an inhibitory action of the test compound was examined through a time-resolved fluorescence resonance energy transfer (TR-FRET) method.
Biotinylated AviTag-KRAS G12C (amino acid region 1-185, GDP) (2.5 μL; 400 nM) dissolved in assay buffer (50 mM HEPES, 150 mM NaCl, 5 mM MgCl2, 0.05% Tween 20, pH 7.4) and test compound were added in a volume of 2.5 μL from 4,000 nM to 4 nM were added to 384 well plate (Corning Inc). Son of Sevenless (SOS) (amino acid region 564-1049, 2.5 μL; 1.3 μM) and c-Raf (amino acid region 51-131) GST containing GTP (Sigma-Aldrich Co. LLC) (2.5 μL; 130 nM and 4 μM of each) were added to the above mixture, and the resultant was left to stand for one hour at room temperature. Thereafter, a mixed solution (10 μL) of LANCE Ulight-anti-GST (120 nM, PerkinElmer. Co., Ltd) and LANCE Eu-W1024 labeled Streptoavidin (100 ng/mL, PerkinElmer. Co., Ltd) was added, and a fluorescence intensity on the condition of wavelength of 620 nm and 665 nm was measured by using EnVision 2103 Multilabel Reader (PerkinElmer Co., Ltd.) under the condition of excitation wavelength of 337 nm. […] In Tables, Ex represents Example numbers described later. In addition, in Tables, Compound C represents a test compound of Example I-59 disclosed in Pamphlet of International Publication No. WO 2016/164675, and the structures of Reference Example 1 and Reference Example 2 are indicated in Table 168 described below (the same shall apply hereinafter).
A general note: Time-resolved FRET reads energy transfer from a long-lived donor to a nearby acceptor.

For experiment [2], the system named is ERK phosphorylation (Thr 202/Tyr 204) in NCI-H1373 cells. In words: ERK phosphorylation inhibitory action in NCI-H1373 (Cell ELISA). The format is cell-based, Human. The following applies: Homo sapiens, NCI-H1373, 2 h, NCI-H1373 cells, cultured for 2 hours, 100% = 1 μM Trametinib; read-out: IC50 (ERK phosphorylation inhibition). The protocol: Evaluation of ERK Phosphorylation Inhibitory Action with Respect to Human KRAS G12C Mutation Positive Non-Small Cell Lung Cancer Strain NCI-H1373
The ERK phosphorylation inhibitory action by the test compound was evaluated by measuring phosphorylation of 202th threonine (Thr 202) and 204th tyrosine (Tyr 204) of ERK on the downstream of the KRAS signal by Cell ELISA.
NCI-H1373 cells (ATCC, CRL-5866) were seeded in 384 well plates (Greiner bio-one) at 36 μL/well each so as to be 2×10^4 cell per well. Cell culture was performed under the conditions of temperature of 37° C. in the presence of 5% CO2 by using RPMI 1640 medium (Sigma-Aldrich Co. LLC) containing 10% fetal bovine serum (GE Life Sciences).
The next day, the test compounds (six points in a range of final concentration 1,000 nM to 0.3 nM), final concentration 1 μM of Trametinib (GlaxoSmithKline Inc.; MEK inhibitor) as a positive control, and DMSO which is a solvent of the test compound as a negative control were diluted 100-fold with fresh medium, 4 μL each was added to each well, and then cultured for 2 hours. Immediately after culturing, 30 μL of 30% glyoxal solution (Wako: 40% glyoxal diluted with Phosphate Buffered Saline (PBS; Wako)) was added to each well, and the cells were left to stand at room temperature for one hour to be fixed. Thereafter, the supernatant was removed by centrifuging the plate (110×g for 7 seconds, unless otherwise stated below under the same conditions), and 20 μL of PBS containing 0.1% Triton X-100 (Amersham Biosciences Corp.) was added to each well. After being left to stand at room temperature for 10 minutes, the supernatant was removed by centrifugation, and the same operation was repeated. Next, 20 μL of PBS containing 0.5% SDS (Invitrogen) was added to each well, and the mixture was left to stand at room temperature for 30 minutes, and then centrifuged to remove the supernatant. Subsequently, 20 μL of a blocking solution (ODYSSEY Blocking Buffer; LI-COR Biosciences) was added to each well, and left to stand at room temperature for one hour. The supernatant was removed by centrifugation, and 10 μL of a blocking solution prepared by diluting ERK (Thr 202/Tyr 204) of a phosphorylation antibody (Cell Signaling Technology, Inc.) as a primary antibody to be ½, 500 amount with respect to a stock solution was added to each well and was left to stand at 4° C. for overnight.
The next day, a reaction liquid is removed by centrifuging the plate, 20 μL of 0.05% Tween-20-containing PBS (Thermo Scientific; 20×PBS Tween-20 diluted 20-fold with ion exchanged water) was added to each well, and each well was washed by removing the supernatant by centrifugation. Washing was performed three times in total. After washing, 10 μL of a blocking solution prepared by diluting IRDye 800CW Goat anti-Rabbit IgG (LI-COR Biosciences) as a secondary antibody to be 1/1,000 amount with respect to a stock solution was added to each well and was left to stand at room temperature for one hour. The reaction liquid was removed by centrifuging the plate, and each well was washed three times with 0.05% Tween-20-containing PBS in the same manner as after primary antibody reaction. The centrifugation after the third wash was 171×g for 17 seconds. After removal of the cleaning solution, the plate was left to air dry at room temperature for three hours or more and the fluorescent signal at 800 nm was measured by Aerius (LI-COR Biosciences).
When a signal value at the time of adding DMSO was set as 0% inhibition, and a signal value at the time of adding 1 μM of Trametinib was set as 100% inhibition, a value of 50% inhibition (IC50) was calculated through Sigmoid-Emax model nonlinear regression analysis.

Experiment [3] has as its system NCI-H1373 cells. In words: Anchorage-independent cell proliferation inhibitory action, NCI-H1373 spheroid three-dimensional culture. The experiment is classed as cell-based, Human. The following applies: Homo sapiens, NCI-H1373, 144 h, NCI-H1373 spheroid, six days, CellTiter Glo; read-out: IC50 (anchorage-independent cell proliferation inhibition). How it is done:
Evaluation of Anchorage-Independent Cell Proliferation Inhibitory Action with Respect to Human KRAS G12C Mutation Positive Non-Small Cell Lung Cancer Strain NCI-H1373
An anchorage-independent cell proliferation inhibitory action by the test compound was evaluated by a spheroid three-dimensional culture.
NCI-H1373 cells were seeded in cell low adsorption U bottom 384 well plates (Prime Surface: Sumitomo Bakelite Co., Ltd.) at 36 μL/well each so as to be 5×10^2 cell per well. The cell culture was performed under the same conditions as Test example 2.
The next day, the test compounds (six points in a range of final concentration 1,000 nM to 0.3 nM) and DMSO which is a solvent of the test compound as a negative control were diluted 100-fold with fresh medium, 4 μL each was added to each well. After culturing at 37° C. in the presence of 5% CO2 for six days, 20 μL of CellTiter Glo or to CellTiter Glo 2.0 (Promega Corporation) was added to each well. After stirring for one hour at room temperature using a plate mixer (FINEPCR), an emission signal was measured with ARVO X3 (PerkinElmer Co., Ltd.).
When a signal value in a DMSO treatment was set as 0% inhibition, and a signal value in cell-free medium only was set as 100% inhibition, a value of 50% inhibition (IC50) was calculated through Sigmoid-Emax model nonlinear regression analysis.

This passage reports IC50 results from patent US10774082B2, “Quinazoline compound” (Astellas Pharma Inc., priority 2017, dated 2020).

The structures appear in SMILES notation.

T1 sequence (P01116 1-185 isoform P01116-2 G12C, one chain of several): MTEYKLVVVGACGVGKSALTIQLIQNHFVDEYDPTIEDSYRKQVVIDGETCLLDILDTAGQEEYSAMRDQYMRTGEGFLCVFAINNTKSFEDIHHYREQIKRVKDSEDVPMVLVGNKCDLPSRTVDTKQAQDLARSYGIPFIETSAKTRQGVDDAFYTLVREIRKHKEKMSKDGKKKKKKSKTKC

Regarding `C=CC(=O)N1CC2(CCN(c3nc(OC4CCN(CCC(F)(F)F)CC4)nc4c(OCC(F)(F)F)c(-c5c(C)ccc6[nH]ncc56)c(C=C)cc34)CC2)C1` [Example 60], the IC50 in experiment [1] is 98 nM; in experiment [2], 8.8 nM; in experiment [3], 35 nM.

As for `C=CC(=O)N1CC2(CCN(c3nc(OC4CCN(C)CC4)nc4c(OCc5ccccc5)c(-c5c(C)ccc6[nH]ncc56)c(C=C)cc34)CC2)C1` [Example 61], the IC50 in experiment [1] came to 56 nM; in experiment [2] it was 8.8 nM; in experiment [3] it was 17 nM.

For `C=CC(=O)N1CC2(CCN(c3nc(OC4CCN(CCOC)CC4)nc4c(OCC(F)(F)F)c(-c5c(C)ccc6cn[nH]c56)c(C=C)cc34)CC2)C1` [Example 62], the results for the IC50 in experiment [1], in experiment [2] and in experiment [3] were 37 nM, 8.8 nM and 14 nM, respectively.

With `C=CC(=O)N1CC2(CCN(c3nc(OC4CCN(C)CC4)nc4c(OCC(C)(F)F)c(-c5c(C)ccc6[nH]ncc56)c(C=C)cc34)CC2)C1` [Example 63], the IC50 in experiment [1] amounted to 53 nM; in experiment [2] it was 6.6 nM; in experiment [3], 14 nM.

Consider `C=CC(=O)N1CC2(CCN(c3nc(O[C@H]4CC[C@@H](N(C)C)CC4)nc4c(OCC(F)(F)F)c(-c5c(C)ccc6[nH]ncc56)c(C=C)cc34)CC2)C1` [Example 64], for which the IC50 in experiment [1] is 32 nM; in experiment [2] it was 9.1 nM; in experiment [3], 15 nM.

Regarding `C=CC(=O)N1CC2(CCN(c3nc(OC4CCN(C)CC4)nc4c(OCc5ccc(OC(F)F)cc5)c(-c5c(C)ccc6[nH]ncc56)c(C=C)cc34)CC2)C1` [Example 66], the IC50 is 47 nM in experiment [1], 9.7 nM in experiment [2] and 39 nM in experiment [3].

With `C=CC(=O)N1CC2(CCN(c3nc(OC4CCN(CCN(CC)CC)CC4)nc4c(OCC(F)(F)F)c(-c5c(C)ccc6[nH]ncc56)c(C=C)cc34)CC2)C1` [Example 67], the IC50 stood at 43 nM in experiment [1], 11 nM in experiment [2] and 18 nM in experiment [3].

`C=CC(=O)N1CC2(CCN(c3nc(NC4CCN(C)CC4)nc4c(OCC(F)(F)F)c(-c5c(C)ccc6[nH]ncc56)c(C=C)cc34)CC2)C1` [Example 68]: the IC50 was found to be 45 nM in experiment [1], 12 nM in experiment [2] and 16 nM in experiment [3].

For `C=CC(=O)N1CC2(CCN(c3nc(OC4CCCN(C)CC4)nc4c(OCC(F)(F)F)c(-c5c(C)ccc6[nH]ncc56)c(C=C)cc34)CC2)C1` (stereo not drawn) [Example 69], the IC50 in experiment [1] is 50 nM; in experiment [2] it was 12 nM; in experiment [3] it was 17 nM.

Consider `C=CC(=O)N1CC2(CCN(c3nc(OC4CCN(C(=O)N(C)C)CC4)nc4c(OCC(F)(F)F)c(-c5c(C)ccc6[nH]ncc56)c(C=C)cc34)CC2)C1` [Example 70], for which the IC50 came out at 79 nM in experiment [1], 18 nM in experiment [2] and 71 nM in experiment [3].

With `C=CC(=O)N1CC2(CCN(c3nc(OCCCN(C)C)nc4c(OCC(F)(F)F)c(-c5c(C)ccc6[nH]ncc56)c(C=C)cc34)CC2)C1` [Example 71], the IC50 in experiment [1] is 40 nM; in experiment [2], 14 nM; in experiment [3], 10 nM.

`C=CC(=O)N1CC2(CCN(c3nc(OC4CCN(C5CCN(C)CC5)CC4)nc4c(OCC(F)(F)F)c(-c5c(C)ccc6[nH]ncc56)c(C=C)cc34)CC2)C1` [Example 72]: the figures for the IC50 in experiment [1], in experiment [2] and in experiment [3] were 41 nM, 14 nM and 24 nM, respectively.

Turning to `C=CC(=O)N1CC2(CCN(c3nc(OC4CCN(CCN5CCCC5)CC4)nc4c(OCC(F)(F)F)c(-c5c(C)ccc6[nH]ncc56)c(C=C)cc34)CC2)C1` [Example 73], the IC50 in experiment [1] was 44 nM; in experiment [2] it was 15 nM; in experiment [3], 28 nM.

With `C=CC(=O)N1CC2(CCN(c3nc(OC4CCN(C)CC4)nc4c(OCC(C)C)c(-c5c(C)ccc6[nH]ncc56)c(C=C)cc34)CC2)C1` [Example 74], the IC50 in experiment [1] is 50 nM; in experiment [2], 15 nM; in experiment [3] it was 21 nM.

In the case of `C=CC(=O)N1CC2(CCN(c3nc(OC4CCS(=O)(=O)CC4)nc4c(OCC(F)(F)F)c(-c5c(C)ccc6[nH]ncc56)c(C=C)cc34)CC2)C1` [Example 75], the IC50 came out at 51 nM in experiment [1], 15 nM in experiment [2] and 43 nM in experiment [3].

Turning to `C=CC(=O)N1CC2(CCN(c3nc(N4CCCN(C)CC4)nc4c(OCC(F)(F)F)c(-c5c(C)ccc6[nH]ncc56)c(C=C)cc34)CC2)C1` [Example 76], the IC50 worked out at 43 nM in experiment [1], 15 nM in experiment [2] and 25 nM in experiment [3].

`C=CC(=O)N1CC2(CCN(c3nc(OC4CCN(CCOC)CC4)nc4c(OCC(F)(F)F)c(-c5c(C)ccc6[nH]nc(Cl)c56)c(C=C)cc34)CC2)C1` [Example 77]: the IC50 was 56 nM in experiment [1], 16 nM in experiment [2] and 32 nM in experiment [3].

As for `C=CC(=O)N1CC2(CCN(c3nc(OC4CCN(CCOC)CC4)nc4c(OCC(F)(F)F)c(-c5c(C)cc(F)c6[nH]ncc56)c(C=C)cc34)CC2)C1` [Example 78], the values for the IC50 in experiment [1], in experiment [2] and in experiment [3] were 47 nM, 16 nM and 24 nM, respectively.
